Data as given in paper PMC8071358, “Targeting of the Essential acpP, ftsZ, and rne Genes in Carbapenem-Resistant Acinetobacter baumannii by Antisense PNA Precision Antibacterials” (Biomedicines, 2021).

Columns and labels:
CRAB strains = assay: BPP-PNA MIC/MBC summarised over the panel of strains; format: cell-based, Acinetobacter baumannii; settings: for bactericidal concentration relative to MIC: CRAB strains; for MIC (complete growth inhibition) over the CRAB strains tested: several A. baumannii strains
Protocol: (§1) MIC values were determined by broth microdilution according to standard protocols with a few modifications. An overnight bacterial cell culture was diluted to approximately 5 × 10^5 CFU/mL in non-cation-adjusted Muller Hinton Broth (MHB). Then, 180 µL bacterial solutions were dispensed into a low-bind 96-well plate (Thermo-Scientific, Roskilde, Denmark) along with 20 µL of BPP-PNA compound (BPP-PNA was serially diluted 2-fold from 16 to 0.5 µM in a 96-well plate). The plate was incubated in a Tecan Genios plate reader (GMI, Minnesota, Ramsey, USA) at 37 °C for 18 h with linear shaking, OD was measured every 20 min at 595 nm. […] The minimum bactericidal concentration (MBC) values were determined by plating 10 µL samples from the wells with no visible turbidity onto Mueller–Hinton agar plates. The MBC is determined the lowest concentration of BPP-PNA that reduces the viability of the initial bacterial inoculum by ≥99.9% (3-log reduction in CFU/mL). A minimum of two independent experiments (biological replicates) of the assay were conducted, and two technical replicates were used in each experiment for each bacterium, compound, and concentration.

E. coli K-12 MG1655 = assay: BPP-PNA MIC, broth microdilution; format: cell-based, Escherichia coli; settings: non-target species; MHB without cation (Oxoid)
Protocol: as §1

P. aeruginosa (PAO1) = assay: BPP-PNA MIC, broth microdilution; format: cell-based, Pseudomonas aeruginosa; settings: non-target species; MHB without cation (Oxoid)
Protocol: as §1

CRAB strain AC44 = assay: BPP-PNA MIC, broth microdilution; format: cell-based, Acinetobacter baumannii; settings: 37 °C, 18 h
Method in brief: (§2)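 Broth microdilution used an overnight culture diluted to about 5 × 10^5 CFU/mL in non-cation-adjusted Mueller Hinton Broth, mixed with 2-fold serial dilutions of BPP-PNA (16 to 0.5 µM in the dilution plate, not final). Plates were shaken at 37 °C for 18 h with OD595 read every 20 min.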

CRAB strain AC2 = assay: BPP-PNA MIC, broth microdilution; format: cell-based, Acinetobacter baumannii; settings: 37 °C, 18 h
Method in brief: as §2

A. baumannii ATCC 19606 [1] = assay: BPP-PNA MIC, broth microdilution; format: cell-based, Acinetobacter baumannii; settings: 37 °C, 18 h
Method in brief: as §2

A. baumannii SSI1104 = assay: BPP-PNA MIC, broth microdilution; format: cell-based, Acinetobacter baumannii; settings: 37 °C, 18 h
Method in brief: as §2

CRAB strain AC46 = assay: BPP-PNA MIC, broth microdilution; format: cell-based, Acinetobacter baumannii; settings: 37 °C, 18 h
HepG2 hepatocytes = assay: HepG2 cell toxicity (CellTiter-Glo, ATP); format: cell-based; settings: HepG2, 2–4 µM, ATP level
Protocol: The cell toxicity of selected BPP-PNAs was determined using HepG2 hepatocytes grown in DMEM (low glucose) medium supplemented with 100 U/mL penicillin, 100 µg/mL streptomycin, 1% glutamax, and 10% fetal bovine serum (FBS) (Thermofisher Scientific, Roskilde, Denmark), at 37 °C with 5% CO2. Then, 7000–10,000 cells were seeded in each well of a 96-well plate. After 48 h, the BPP-PNAs were added (six replicates for each concentration), followed by overnight incubation. Total amount of adenosine triphosphate (ATP) was used as a measure of cell viability, according to the CellTiter-Glo luminescent cell viability assay (Promega, Madison, WI, USA) kit. BPP-PNAs concentrations ranged from 2.5 to 20 µM. Potassium dichromate (100 µM) was used as a positive control.

A. baumannii ATCC 19606 [2] = assay: Time-kill assay; format: cell-based, Acinetobacter baumannii; settings: ~10^6 CFU/mL, 37 °C, MHB without cation (Sigma)
Protocol: Bacterial cultures were harvested at 0, 90 min, 3 and 6 h. The content of each well was added to 0.9 mL of MHB and centrifuged at 9300× g for 5 min. Supernatants were removed and the cell pellets were suspended in fresh pre-warmed MHB (100 μL). Tenfold serial dilution were prepared, and 10 μL aliquots were plated on Mueller–Hinton agar and incubated overnight at 37 °C to determine the CFU/mL [17].

A. baumannii ATCC 19606 [3] = assay: Envelope disruption, Sytox green uptake; format: cell-based, Acinetobacter baumannii; settings: fluorescence over 90 min, 37 °C
Protocol: A culture of A. baumannii ATCC 19606 was grown in MHB (195 rpm at 37 °C), until OD595 = 0.4. Then, bacterial cells were pelleted by centrifugation, washed with 0.9% NaCl, and resuspended in MHB at an OD595 = 0.1. Sytox green dye (Invitrogen) was added to the bacterial culture at a concentration of 2 µM followed by incubation for 5 min at 37 °C, followed by addition of the desired amount of BPP–PNA in a 96-well plate format. Fluorescence intensity (λex = 480 nm, λem = 520 nm) was measured every 5 min for 90 min at 37 °C with continuous shaking.

CRAB strain AC4 = assay: BPP-PNA MIC, broth microdilution; format: cell-based, Acinetobacter baumannii; settings: MHB without cation (Oxoid); 37 °C, 18 h
Method in brief: as §2

CRAB strain AC5 = assay: BPP-PNA MIC, broth microdilution; format: cell-based, Acinetobacter baumannii; settings: MHB without cation (Oxoid); 37 °C, 18 h
Method in brief: as §2

CRAB strain AC3 = assay: BPP-PNA MIC, broth microdilution; format: cell-based, Acinetobacter baumannii; settings: MHB without cation (Oxoid); 37 °C, 18 h
Method in brief: as §2

CRAB strain AC7 = assay: BPP-PNA MIC, broth microdilution; format: cell-based, Acinetobacter baumannii; settings: MHB without cation (Oxoid); 37 °C, 18 h
Method in brief: as §2

CRAB strain AC6 = assay: BPP-PNA MIC, broth microdilution; format: cell-based, Acinetobacter baumannii; settings: MHB without cation (Oxoid); 37 °C, 18 h
Method in brief: as §2

CRAB strain AC8 = assay: BPP-PNA MIC, broth microdilution; format: cell-based, Acinetobacter baumannii; settings: MHB without cation (Oxoid); 37 °C, 18 h
Method in brief: as §2

CRAB strain AC1 = assay: BPP-PNA MIC, broth microdilution; format: cell-based, Acinetobacter baumannii; settings: MHB without cation (Oxoid); 37 °C, 18 h
Method in brief: as §2

[4] = Oxoid MHB medium, cation adjusted
[5] = Sigma MHB medium without cation

H-(KFF)3K-eg1-TGATTTGCCAC-NH2 (antisense; N-terminal (KFF)3K-eg1 peptide, C-terminal amide, backbone not given here, further chemistry not given here) [PNA 5639, anti-acpP peptide-PNA conjugate, match, +1 to +11]
concentration with bactericidal activity against carbapenem-resistant A. baumannii (CRAB strains): 4 µM | bactericidal concentration relative to MIC (CRAB strains): 1–2 × MIC | decrease of potency in cation adjusted MHB (CRAB strains; cation adjusted MHB against MHB without cation): 1–4 fold | MIC (complete growth inhibition) over the CRAB strains tested (CRAB strains): 1 to 2 µM | MIC, E. coli K-12 MG1655 (E. coli K-12 MG1655): >16 µM | MIC, P. aeruginosa (PAO1) (P. aeruginosa (PAO1)): >16 µM | MIC, AC44 (CRAB strain AC44; [4]): 4 µM | MIC, AC44 (CRAB strain AC44; [5]): 1 µM | MIC, AC2 (CRAB strain AC2; [4]): 4 µM | MIC, AC2 (CRAB strain AC2; [5]): 1 to 2 µM | MIC, ATCC 19606 (A. baumannii ATCC 19606 [1]; MHB without cation (Oxoid)): 2 µM | MIC, ATCC 19606 (A. baumannii ATCC 19606 [1]; [4]): 4 µM | MIC, ATCC 19606 (A. baumannii ATCC 19606 [1]; Sigma MHB medium without cation, ~5 × 10^5 CFU/mL, OD595 < 0.1): 2 µM | MIC, SSI 1104 (A. baumannii SSI1104; MHB without cation (Oxoid)): 2 µM | MIC, SSI 1104 (A. baumannii SSI1104; [4]): 4 µM | MIC, SSI 1104 (A. baumannii SSI1104; [5]): 2 µM | MIC, AC46 (CRAB strain AC46; [4]): 4 µM | MIC, AC46 (CRAB strain AC46; [5]): 1 µM | reduction in cell viability at MIC50 concentration (HepG2 hepatocytes): no reduction in viability | CFU reduction in time-kill (A. baumannii ATCC 19606 [2]; 4 or 8 μM, after 3 h treatment): 4 log | membrane disruption activity (Sytox uptake) (A. baumannii ATCC 19606 [3]; 8 µM): only a minimal effect | membrane disruption activity (Sytox uptake) (A. baumannii ATCC 19606 [3]; 2× MIC concentration (4 µM)): no indication of membrane disruption activity

H-(KFF)3K-eg1-GAGGCCATGAC-NH2 (antisense; N-terminal (KFF)3K-eg1 peptide, C-terminal amide, backbone not given here, further chemistry not given here) [PNA 5612, anti-ftsZ peptide-PNA conjugate, match, −3 to +8]
concentration with bactericidal activity against carbapenem-resistant A. baumannii (CRAB strains): 4 µM | MIC range against 12 multidrug resistant clinical isolates (CRAB strains; 12 CRAB clinical isolates (Table 3)): 2 to 8 µM | match/mismatch ratio of MIC (CRAB strains; 12 multidrug resistant clinical isolates, 5612 vs 5615): 2–8 fold | bactericidal concentration relative to MIC (CRAB strains): 1–2 × MIC | MIC50 (CRAB strains; over the CRAB and ATCC 19606 strains of Table 3, MHB without cation (Oxoid)): 4 µM | MIC (complete growth inhibition) over the CRAB strains tested (CRAB strains): 2 to 8 µM | MIC of match PNA lower than mismatch control (mismatch discrimination) (CRAB strains; strains of Table 2 (5612 vs 5615) or Table 4 (5656 vs 5822)): 2–4 fold | MIC, E. coli K-12 MG1655 (E. coli K-12 MG1655): >16 µM | MIC, P. aeruginosa (PAO1) (P. aeruginosa (PAO1)): >16 µM | MIC, AC4 (CRAB strain AC4): 8 µM | MIC, AC5 (CRAB strain AC5): 4 µM | MIC, AC3 (CRAB strain AC3): 4 µM | MIC, AC7 (CRAB strain AC7): 4 µM | MIC, AC6 (CRAB strain AC6): 4 µM | MIC, AC44 (CRAB strain AC44; MHB without cation (Oxoid)): 8 µM | MIC, AC2 (CRAB strain AC2; MHB without cation (Oxoid)): 2 µM | MIC, AC8 (CRAB strain AC8): 8 µM | MIC, AC1 (CRAB strain AC1): 4 µM | MIC, ATCC 19606 (A. baumannii ATCC 19606 [1]; MHB without cation (Oxoid)): 4 µM | MIC, SSI 1104 (A. baumannii SSI1104; MHB without cation (Oxoid)): 4 µM | MIC, AC46 (CRAB strain AC46; MHB without cation (Oxoid)): 8 µM | reduction in cell viability at MIC50 concentration (HepG2 hepatocytes): no reduction in viability | CFU reduction in time-kill (A. baumannii ATCC 19606 [2]; 4 μM, after 3 h): more than three order of magnitude CFU reduction | membrane disruption activity (Sytox uptake) (A. baumannii ATCC 19606 [3]; 8 µM): only a minimal effect | membrane disruption activity (Sytox uptake) (A. baumannii ATCC 19606 [3]; 2× MIC concentration (4 µM)): no indication of membrane disruption activity
